Molecular target: PDE5A (Homo sapiens, UniProt O76074)
Experiment: PDE-Glo assay with purified recombinant human PDE5A; supported by cellular thermal shift assay in HEK293T lysate
Format: biochemical

IC50: 9.91 µM
Compound: COc1ccc(-c2oc3c(CC=C(C)C)c(OCc4ccccc4)cc(O)c3c(=O)c2O)cc1 [compound 14, 7-O-benzylicaritin]

From paper PMC7995890, “Inhibition of Phosphodiesterase 5 Promotes the Aromatase-Mediated Estrogen Biosynthesis in Osteoblastic Cells by Activation of cGMP/PKG/SHP2 Pathway” (Frontiers in Endocrinology, 2021)
